In patent publication US20120258938A1, “Enzymatic Production or Chemical Synthesis and Uses for 5,7-Dienes and UVB Conversion Products Thereof” (priority 2008, published 2012):

What was measured:
[1] = system: HaCaT keratinocytes; format: cell-based, human
Protocol: The cells were seeded in 96-well plate in F10 medium. Following 48 to 96 h incubation cells were fixed with 10% trichloroacetic acid, washed and then incubated with 0.04% sulforhodamine B (in 1% acetic acid) for 30 min. Following second wash with 1% acetic acid, dye incorporated into the cells was solubilized in 10 mM Tris by shaking for 30 min and the absorbance was measured at 570 nm.
Cells are treated with the test compound, washed, fixed and stained with the Sulphorhodamine B dye (SRB). The incorporated dye is then liberated from the cells in a tris-base solution. An increase or decrease in the number of cells (total biomass) results in a concomitant change in the amount of dye incorporated by the cells in the culture. Cells were seeded in growth medium at 10,000 per well in 96-well plates. After 12 h of culture the medium was changed to 5% charcoal-treated serum and cells cultured for a further 47 h with serial dilutions of 1α,20-dihydroxycholecalciferol (diluted as for as for thymidine incorporation). […] was then added to a final concentration of 20% from a 50% stock and cells incubated for 1 h. Cells were stained with SRB 0.4% (Sigma), washed with 1% acetic acid and dried. Trsi-HCl was added and the absorbance measured at 565 nm. The absorbance of blank medium only, was also measured also at 690 nm.

[2] = system: CYP24; assay: Real-time RT PCR CYP24 mRNA in HaCaT keratinocytes; format: cell-based, human
Protocol: RNA was extracted as above. Reverse transcription was performed with Transcriptor First Strand cDNA Synthesis Kit (Roche, Nutley, N.J.). The primers (right: 5′-GCA GCT CGA CTG GAG TGA C-3′ (SEQ ID NO: 1) and left: 5′-CATCATGGCCATCAAAACAAT-3′(SEQ ID NO: 2)) and probe (cat. no. 04689135001) were designed with Universal Probe Library (Roche, Nutley, N.J.). Real-time PCR was performed using TaqMan PCR Master Mix at 50° C. for 2 min, 95° C. for 10 min and then 50 cycles (95° C. for 15 sec, 60° C. for 1 min). The data was collected on a Roche Light Cycler 480. The amounts of CYP24 were normalized using cyclophilin D as a housekeeping gene with comparative CT method.
The RNA from HaCaT keratinocytes treated with 1α,20-dihydroxycholecalciferol was isolated and RT PCR run as described in Example 1.

[3] = system: HaCaT keratinocytes; assay: [3H]-thymidine DNA synthesis in HaCaT keratinocytes; format: cell-based, human
Protocol: HaCaT keratinocytes were plated in 96-well plates at the density of 10,000 cells/well in DMEM (Cellgro, Herndon Va.) containing 5% charcoal treated fetal bovine serum (Hyclone, Logan, Utah), 1% antibiotic solution (PSA, Sigma, St. Louis, […].). Next day, media were changed and vehicle (ethanol) or secosteroids added. Cells were incubated with compounds for 48 hours. [^3H]-thymidine (Amersham Biosciences, Picataway, N.Y.) was added to the final concentration of 1 μCi/mL medium for last 12 hours of incubation. Media were then discarded, cells detached with trypsin and harvested on a glass fiber filter (Packard, Meriden, Calif.). Radioactivity was measured with a beta counter (Direct Beta-Counter Matrix 9600; Packard).
(§1) To measure DNA synthesis, keratinocytes, melanoma or prostate cancer cells were plated in 96-well plates. After overnight incubation tested compounds were added to the medium to achieve final concentrations 10^−7-10^−10 [M]. 100 μl of medium per well containing vitamin D3 compound was added to the cells. After 36 hours of incubation [3H]-thymidine (specific activity 88.0 Ci/mmol; Amersham Biosciences, Picataway, N.Y., USA) was added at 1 μCi/mL medium. After 12 hours, media were discarded, cells detached with trypsin and harvested on a glass fiber filter (Packard, Meriden, Calif., USA). 3H-radioactivity was measured with a beta counter (Direct Beta-Counter Matrix 9600; Packard).
HaCaT keratinocytes were plated out in 24-well plates, 50,000 cells/well. […] After 4 h media were discarded, cells washed with cold phosphate-buffered saline and incubated in 10% trichloroacetic acid for 30 min. Cells were washed again with phosphate-buffered saline, 100 μl 1.0 M NaOH was added to each well and plates incubated for 30 min at 30° C. The supernatant was collected and the ^3H-radioactivity measured by scintillation counting using a Direct Beta-Counter Matrix 9600 (Packard). The [^3H]-thymidine incorporation into DNA was measured separately for each well and the results entered into the calculation as the mean of 6 wells for each condition in a series of six experiments (n=36). Data were analyzed with GraphPad Prizm Version 4.0 (GraphPad Software Inc., San Diego, Calif., USA) using t tests. Differences were considered significant when p<0.05.

[4] = molecular target: bovine CYP11A1 (Bos taurus, UniProt P00189); assay: Metabolism by CYP11A1 (P450scc) in phospholipid vesicles; format: in vitro ADME; conditions: first 2 min of incubation
Protocol: (§2) Adrenodoxin was added last to initiate the reaction.
(§3) Products and remaining substrate were extracted with dichloromethane, and measured by reverse phase HPLC as described before (12, 13b).

[5] = molecular target: human CYP27B1 (Homo sapiens, UniProt O15528); assay: Metabolism by CYP27B1 in phospholipid vesicles; format: in vitro ADME; conditions: up to 10 min
Protocol: as §2, §3

[6] = system: neonatal human epidermal keratinocytes (HEKn); assay: [3H]-thymidine proliferation assay in HEKn; format: cell-based; conditions: 24 h, 0.1 nM
Protocol: Neonatal human epidermal keratinocytes (HEKn) were isolated form neonatal foreskin of African-American donors and grown in HKM (Lonza) medium supplemented with HKGF (Lonza) as described previously (8a,c). For the cell proliferation assay the cells from a third passage were seeded into 24-well plates (TPP, Switzerland) and grown until reaching ˜80% confluence. Secosteroids were dissolved in ethanol and then diluted in keratinocyte medium containing 0.1% BSA (Sigma). Cells were incubated for 24 h then 1 μCi/ml [^3H]-thymidine (Moravek Biochemicals Inc., Brea, Calif.) was added and cells were incubated for further 4 h. Excess of unbound thymidine was removed by washing cells with PBS. Cells were precipitated with 10% trichloroacetic acid (TCA) (Sigma) and then the precipitate dissolved with 1N NaOH. The solution was collected in vials and thymidine incorporation was determined in liquid scintillation counter (Beckman LS 6000, Santa Clara, Calif.).

[7] = system: involucrin; assay: Involucrin protein fluorescence, normal human epidermal keratinocytes; format: cell-based; conditions: 10^−7 M
Protocol: Cells were seeded in 6-well Lab-Tek II chamber slides (Nalge Nunc, Inc., Naperville, Ill.). Cells were pre-incubated in Epilife medium with HKGS overnight and then stimulated with 20-hydroxycholecalciferol in Epilife medium with HKGS for 24 hours and then fixed with 4% paraformaldehyde in PBS for 10 minutes. The cells were permeabilized with 0.2% Triton-X 100 in PBS for 5 minutes and blocked with 1% bovine serum albumine (BSA; in PBS) for 30 minutes. The cells were incubated consecutively with mouse anti-human involucrin antibody (Novocastra, Newcastle upon Tyne, UK) for 3 hours, anti-mouse-fluorescein isothiocyanate (FITC) conjugate (Novocastra, Newcastle upon Tyne, UK) for 1 hour in buffer containing 1% BSA in PBS. The slides were extensively washed with PBS between stainings and mounted with Vectashield mounting medium with propidium iodide (Vector Laboratories, Burlingame, Calif.). Slides not incubated with primary antibody were used as background controls. Slides were viewed with NIKON Eclipse TE300 microscope (Melville, N.Y.).
Data are shown as mean±SD (n=10-20). **, p<0.01. ***, p<0.001.

[8] = system: involucrin; assay: Real-time RT PCR involucrin mRNA, normal human epidermal keratinocytes; format: cell-based; conditions: 10^−7 M, time dependant
Protocol: RNA was extracted using an Absolutely RNA RT-PCR Miniprep Kit (Stratagene, La Jolla, Calif.). Real time PCR and reverse transcription products were purchased from Applied Biosystems, Foster City, Calif. Reverse transcription was performed using Taqman® Reverse Transcription Reagents. The following PCR products were used: cytokeratin 14: Hs00265033_m1, involucrin: Hs00846307_s1, CYP27A1: Hs00168003_ml, CYP27B1: Hs00168017_ml, 18SrRNA: Hs99999901_s1. The reaction was performed with Taqman® Universal PCR Master Mix; data were collected on an ABI Prism 7700 and analyzed on Sequence Detector 1.9.1. Specific gene amounts were related to 18SrRNA by comparative CT method.

[9] = system: neonatal epidermal melanocytes; assay: Proliferation of neonatal epidermal melanocytes; format: cell-based; conditions: 48 hours
[10] = system: human melanoma cells; assay: Melanoma colony formation (crystal violet, 7 days); format: cell-based; conditions: colonies over 0.2 mm and 0.5 mm
Source text: Inhibitory effects of 20(OH)D2 (FIGS. 47A-47B) in comparison to 1,25(OH)2D3 (FIGS. 47C-47D) on the ability of human melanoma cells to form colonies was examined.

[11] = system: immortalized normal epidermal melanocytes (PIG1 line); assay: Proliferation of PIG1 melanocytes; format: cell-based; conditions: PIG1, 72 h
[12] = system: SKMEL-188 human melanoma cells; assay: Proliferation (DNA synthesis) of SKMEL-188; format: cell-based; conditions: SKMEL-188, 72 h
Protocol: as §1
(§4) HaCaT keratinocytes were an incubated for 48 h (FIG. 48A) or 72 h (FIG. 48B) in the presence of graded concentrations of 20(OH)D2 and/or 1,25(OH)2D3. […] Data are shown as mean±SD (n 3); *, p<0.05; **, p<0.01.

[13] = system: AbC1 hamster melanoma cells; assay: Proliferation (DNA synthesis) of AbC1; format: cell-based; conditions: AbC1, 72 h
Protocol: as §1, §4

[14] = substrate: C=C1CC[C@H](O)C/C1=C/C=C1\CCC[C@]2(C)[C@@H]([C@H](C)CCCC(C)C)CC[C@@H]12; assay: cells, lysate or membranes named; conditions: other: cyclodextrin; 37.0 °C

human CYP27B1, sequence (O15528 whole entry): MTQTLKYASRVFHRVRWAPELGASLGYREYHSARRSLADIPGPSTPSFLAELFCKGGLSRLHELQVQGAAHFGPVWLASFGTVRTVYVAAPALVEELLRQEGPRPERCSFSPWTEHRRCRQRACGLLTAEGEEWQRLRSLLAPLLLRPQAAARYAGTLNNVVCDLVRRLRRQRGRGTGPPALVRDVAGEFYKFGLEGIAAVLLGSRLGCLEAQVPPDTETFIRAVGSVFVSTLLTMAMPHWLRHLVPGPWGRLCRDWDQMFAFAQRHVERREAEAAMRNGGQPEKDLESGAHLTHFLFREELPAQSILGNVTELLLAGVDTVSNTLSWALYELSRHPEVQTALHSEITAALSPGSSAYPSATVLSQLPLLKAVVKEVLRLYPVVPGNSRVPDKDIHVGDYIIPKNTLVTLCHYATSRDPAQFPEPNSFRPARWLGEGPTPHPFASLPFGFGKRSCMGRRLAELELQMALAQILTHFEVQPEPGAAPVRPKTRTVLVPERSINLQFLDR
bovine CYP11A1, sequence (P00189 40-520): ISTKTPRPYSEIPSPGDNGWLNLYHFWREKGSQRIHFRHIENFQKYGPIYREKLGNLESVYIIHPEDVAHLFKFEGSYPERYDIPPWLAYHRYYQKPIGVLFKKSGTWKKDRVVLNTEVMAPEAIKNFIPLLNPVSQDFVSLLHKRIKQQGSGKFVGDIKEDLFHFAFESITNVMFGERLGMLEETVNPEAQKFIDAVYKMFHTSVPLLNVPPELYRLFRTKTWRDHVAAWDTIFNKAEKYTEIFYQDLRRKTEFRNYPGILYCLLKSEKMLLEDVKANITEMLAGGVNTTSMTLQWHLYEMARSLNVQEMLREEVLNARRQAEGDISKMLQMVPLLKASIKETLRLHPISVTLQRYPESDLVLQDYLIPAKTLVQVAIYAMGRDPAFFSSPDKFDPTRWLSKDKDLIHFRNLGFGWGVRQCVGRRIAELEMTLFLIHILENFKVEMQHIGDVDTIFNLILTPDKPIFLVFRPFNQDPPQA

## C=C1C(=CC=C2CCCC3(C)C2CCC3C(C)(O)CCCC(C)C)CC(O)CC1O (stereo not drawn) [1α,20-dihydroxycholecalciferol, (5Z,7E)-9,10-secocholesta-5,7,10(19)-triene-1α,3β,20-triol]
[1]
  number of viable cells (sulforhodamine B): caused a decrease in number of viable cells
[2]; 0.1 μM, 6 h
  CYP24 mRNA level: Modest stimulation
[2]; 0.1 μM, 24 h
  CYP24 mRNA level: the effect was lost by 24 h
[2]; 1 μM, 6 h and 24 h
  CYP24 mRNA level: markedly increased the Cyp 24 mRNA level
[3]; 0.1 nM
  decrease in DNA synthesis: 30%
[3]; 10 nM
  decrease in DNA synthesis: 50%
[3]; HaCaT, 48 h
  keratinocyte proliferation compared with 1α,25-dihydroxycholecalciferol: inhibit keratinocyte proliferation more potently than the control compound

## C=C1CCC(O)CC1=CC=C1CCCC2(C)C1CCC2C(C)(O)CCCC(C)C (stereo not drawn) [20R(OH)D3, (5Z,7E)-9,10-secocholesta-5,7,10(19)-triene-3β,20R-diol]
[4]
  substrate consumed: 58%
[5]
  metabolism by CYP27B1: metabolized to a single product at comparable initial rates
[6]
  thymidine incorporation into DNA: slightly stimulated thymidine incorporation into DNA

## (5Z,7E,22E)-9,10-secoergosta-5,7,9(10),22-tetraene-3β,20-diol [20(OH)D2]
[7]
  involucrin protein expression: increased expression of involucrin protein
[8]
  involucrin gene expression: induced time dependant involucrin gene expression
[9]
  proliferation: Dose dependent inhibition of the proliferation
[10]
  melanoma cell colony formation compared with 1,25(OH)2D3: Inhibits Melanoma Cell Colony Formation Better than 1.25 OH 2D3
[11]
  proliferation: Dose dependent inhibition of the proliferation
[12]
  proliferation: Dose dependent inhibition of the proliferation
[13]
  proliferation: Dose dependent inhibition of the proliferation

B1: CYP27A1 (Homo sapiens) (protein)
chain: ALPSDKATGAPGAGPGVRRRQRSLEEIPRLGQLRFFFQLFVQGYALQLHQLQVLYKAKYGPMWMSYLGPQMHVNLASAPLLEQVMRQEGKYPVRNDMELWKEHRDQHDLTYGPFTTEGHHWYQLRQALNQRLLKPAEAALYTDAFNEVIDDFMTRLDQLRAESASGNQVSDMAQLFYYFALEAICYILFEKRIGCLQRSIPEDTVTFVRSIGLMFQNSLYATFLPKWTRPVLPFWKRYLDGWNAIFSFGKKLIDEKLEDMEAQLQAAGPDGIQVSGYLHFLLASGQLSPREAMGSLPELLMAGVDTTSNTLTWALYHLSKDPEIQEALHEEVVGVVPAGQVPQHKDFAHMPLLKAVLKETLRLYPVVPTNSRIIEKEIEVDGFLFPKNTQFVFCHYVVSRDPTAFSEPESFQPHRWLRNSQPATPRIQHPFGSVPFGYGVRACLGRRIAELEMQLLLARLIQKYKVVLAPETGELKSVARIVLVPNKKVGLQFLQRQC
[14]
  Km: 10.7 ± 3.1 µM
